Data published in ChEMBL document CHEMBL1157926, “Synthesis and biological evaluation of combretastatin analogs as cell cycle inhibitors of the G1 to S transition in Saccharomyces cerevisiae” (2010).
Activity calls are given as the source filed them. The rule behind the calls is not given here.

What was measured:
Saccharomyces cerevisiae [1] = test: Growth inhibition of Saccharomyces cerevisiae BY4741 at 150 uM up to 180 mins; type: functional, organism-based
Saccharomyces cerevisiae [2] = test: Growth inhibition of Saccharomyces cerevisiae BY4741 at 300 uM up to 180 mins; type: functional, organism-based
Saccharomyces cerevisiae [3] = test: Growth inhibition of Saccharomyces cerevisiae BY4741 at 450 uM up to 180 mins; type: functional, organism-based
Saccharomyces cerevisiae [4] = test: Induction of log phase growth arrest in Saccharomyces cerevisiae BY4741; type: functional, organism-based
Saccharomyces cerevisiae [5] = test: Reduction of budding index in Saccharomyces cerevisiae BY4741 at 450 uM relative to control; type: functional; design: scale not given: the % may be the effect or the level left
Saccharomyces cerevisiae [6] = test: Cell cycle arrest in Saccharomyces cerevisiae BY4741 assessed as accumulation of cells at G1 phase at 450 uM after 3 hrs by FACS analysis; type: functional
Saccharomyces cerevisiae [7] = test: Induction of G1 phase arrest in Saccharomyces cerevisiae expressing TAP-tagged Clb5 assessed as down-regulation of Clb5 level at 450 uM after 3 hrs by Western blot analysis; type: functional, organism-based
Saccharomyces cerevisiae [8] = test: Induction of G1 phase arrest in Saccharomyces cerevisiae expressing TAP-tagged Cln1 assessed as down-regulation of Cln1 level at 450 uM after 3 hrs by Western blot analysis; type: functional, organism-based
Saccharomyces cerevisiae [9] = test: Induction of G1 phase arrest in Saccharomyces cerevisiae expressing TAP-tagged Cln2 assessed as down-regulation of Cln2 level at 450 uM after 3 hrs by Western blot analysis; type: functional, organism-based
Saccharomyces cerevisiae [10] = test: Induction of G1 phase arrest in Saccharomyces cerevisiae expressing TAP-tagged Sic1 assessed as down-regulation of Sic1 level at 450 uM after 3 hrs by Western blot analysis; type: functional, organism-based
Saccharomyces cerevisiae [11] = test: Induction of G1 phase arrest in alpha factor treated Saccharomyces cerevisiae expressing TAP-tagged Clb5 assessed as inhibition of Clb5 expression at 450 uM after 3 hrs by FACS analysis; type: functional, organism-based
Saccharomyces cerevisiae [12] = test: Induction of snf1 phosphorylation at T210 in Saccharomyces cerevisiae expressing Snf1-9myc at 450 uM after 3 hrs by Western blot analysis; type: functional, organism-based
Saccharomyces cerevisiae [13] = test: Cell cycle arrest in Saccharomyces cerevisiae BY4741 assessed as accumulation of cells at metaphase with post synthetic DNA content by FACS analysis; type: functional, organism-based
Saccharomyces cerevisiae [14] = test: Cell cycle arrest in Saccharomyces cerevisiae BY4741 assessed as accumulation of cells at metaphase with short spindles by FACS analysis; type: functional, organism-based

| Compound | growth inhibition (GI) (Saccharomyces cerevisiae [1]) | growth inhibition (GI) (Saccharomyces cerevisiae [2]) | growth inhibition (GI) (Saccharomyces cerevisiae [3]) | also measured |
| --- | --- | --- | --- | --- |
| COc1ccc(/C=C\c2cc(OC)c(OC)c(OC)c2)cc1N | inactive | inactive | inactive | – |
| COc1ccc(/C=C\c2cc(OC)c(OC)c(OC)c2)cc1F | inactive | inactive | inactive | – |
| COc1ccc(/C=C\c2cc(OC)c(OC)c(OC)c2)cc1[N+](=O)[O-] | inactive | inactive | inactive | – |
| COc1ccc(/C=C\c2cc(OC)c(OC)c(OC)c2)cc1B(O)O | – | – | – | Activity (Saccharomyces cerevisiae [4]): Dose-dependent effect; Activity (Saccharomyces cerevisiae [5]): 42%; Activity (Saccharomyces cerevisiae [6]): 50%; Activity (Saccharomyces cerevisiae [7]): Active; Activity (Saccharomyces cerevisiae [8]): inactive; Activity (Saccharomyces cerevisiae [9]): inactive; Activity (Saccharomyces cerevisiae [10]): inactive; Activity (Saccharomyces cerevisiae [11]): Active; Activity (Saccharomyces cerevisiae [12]): Active |
| COc1ccc(/C=C/c2cc(OC)c(OC)c(OC)c2)cc1N | inactive | inactive | inactive | – |
| COc1ccc(/C=C/c2cc(OC)c(OC)c(OC)c2)cc1O | inactive | inactive | inactive | – |
| COc1ccc(/C=C/c2cc(OC)c(OC)c(OC)c2)cc1B(O)O | inactive | inactive | inactive | – |
| COc1ccc(/C=C\c2cc(OC)c(OC)c(OC)c2)cc1O [COMBRETASTATIN A4] | – | – | – | Activity (Saccharomyces cerevisiae [4]): Dose-dependent effect; Activity (Saccharomyces cerevisiae [5]): 42%; Activity (Saccharomyces cerevisiae [6]): 50%; Activity (Saccharomyces cerevisiae [7]): Active; Activity (Saccharomyces cerevisiae [8]): inactive; Activity (Saccharomyces cerevisiae [9]): inactive; Activity (Saccharomyces cerevisiae [10]): inactive; Activity (Saccharomyces cerevisiae [11]): Active; Activity (Saccharomyces cerevisiae [12]): Active |
| COc1ccc(/C=C/c2cc(OC)c(OC)c(OC)c2)c(O)c1O | inactive | inactive | inactive | – |
| COc1ccc(/C=C/c2cc(OC)c(OC)c(OC)c2)cc1[N+](=O)[O-] | inactive | inactive | inactive | – |
| COc1ccc(/C=C\c2cc(OC)c(OC)c(OC)c2)c(O)c1O | – | – | – | Activity (Saccharomyces cerevisiae [4]): Dose-dependent effect; Activity (Saccharomyces cerevisiae [13]): Active; Activity (Saccharomyces cerevisiae [14]): Active |
| COc1ccc(/C=C/c2cc(OC)c(OC)c(OC)c2)cc1F | inactive | inactive | inactive | – |
